Test results: the NIST ThermoML archive (doi:10.1021/acs.jced.5b01031)

Assay: mn = molality of the nth substance listed, in mol/kg
Conditions: 81.5 kPa, Liquid, Vibrating tube method

C[C@H](N)C(=O)O [(S)-2-aminopropanoic acid] + O
mass density [kg/m3]
Conditions	m1 = 0.1001	m1 = 0.1501	m1 = 0.1998	m1 = 0.2502	m1 = 0.3	m1 = 0.3501	m1 = 0.3986	m1 = 0.4493	m1 = 0.4994
303.15 K	998.46	999.85	1001.23	1002.6	1003.96	1005.32	1006.62	1007.97	1009.28
308.15 K	996.83	998.21	999.58	1000.94	1002.29	1003.64	1004.93	1006.27	1007.56
313.15 K	995	996.39	997.76	999.11	1000.45	1001.77	1003.07	1004.36	1005.62

CC(C)[C@H](N)C(=O)O [L-valine] + O
mass density [kg/m3]
Conditions	m1 = 0.1004	m1 = 0.1489	m1 = 0.1996	m1 = 0.2497	m1 = 0.3001	m1 = 0.3488	m1 = 0.3995	m1 = 0.4501	m1 = 0.4989
303.15 K	998.27	999.57	1000.84	1002.1	1003.33	1004.55	1005.74	1006.93	1008.09
308.15 K	996.63	997.9	999.16	1000.41	1001.63	1002.84	1004.02	1005.2	1006.34
313.15 K	994.92	996.25	997.55	998.83	1000.05	1001.27	1002.46	1003.61	1004.75
